From patent US20240270821A1, “GIP/GLP1/GCG TRI-RECEPTOR AGONISTS AND USES THEREOF” (priority 2023, published 2024) come the findings set out here.

Common to all, as to type: cell-based
For test [1], the target named is hGcgR (Homo sapiens, UniProt P47871). Kind of test: Functional cAMP activation in the presence of 0.1% casein (no HSA). The note with it: read-out: Relative cAMP EC50, hGcgR.
Test [2] deals with T1, hGIPR (Homo sapiens, UniProt P48546).
T1 sequence (P48546 22-466): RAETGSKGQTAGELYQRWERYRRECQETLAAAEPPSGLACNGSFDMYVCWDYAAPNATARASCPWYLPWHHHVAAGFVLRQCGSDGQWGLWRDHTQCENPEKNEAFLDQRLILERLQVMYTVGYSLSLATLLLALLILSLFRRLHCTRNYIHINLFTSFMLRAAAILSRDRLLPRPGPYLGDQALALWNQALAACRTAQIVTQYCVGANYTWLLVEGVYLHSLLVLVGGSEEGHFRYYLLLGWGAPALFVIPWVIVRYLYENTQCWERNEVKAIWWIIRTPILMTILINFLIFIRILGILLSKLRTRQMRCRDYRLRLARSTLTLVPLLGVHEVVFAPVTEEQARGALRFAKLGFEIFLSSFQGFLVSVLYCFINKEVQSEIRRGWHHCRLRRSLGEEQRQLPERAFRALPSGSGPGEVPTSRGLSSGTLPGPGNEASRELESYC
The test is described as above. The settings on record: read-out: Relative cAMP EC50, hGIPR.

The target in test [3] is T2, hGLP-1R (Homo sapiens, UniProt P43220). Kind of test: Functional cAMP activity in the presence of 1% HSA. The settings on record: read-out: cAMP Rel EC50, hGLP-1R.
T2 sequence (P43220 24-463): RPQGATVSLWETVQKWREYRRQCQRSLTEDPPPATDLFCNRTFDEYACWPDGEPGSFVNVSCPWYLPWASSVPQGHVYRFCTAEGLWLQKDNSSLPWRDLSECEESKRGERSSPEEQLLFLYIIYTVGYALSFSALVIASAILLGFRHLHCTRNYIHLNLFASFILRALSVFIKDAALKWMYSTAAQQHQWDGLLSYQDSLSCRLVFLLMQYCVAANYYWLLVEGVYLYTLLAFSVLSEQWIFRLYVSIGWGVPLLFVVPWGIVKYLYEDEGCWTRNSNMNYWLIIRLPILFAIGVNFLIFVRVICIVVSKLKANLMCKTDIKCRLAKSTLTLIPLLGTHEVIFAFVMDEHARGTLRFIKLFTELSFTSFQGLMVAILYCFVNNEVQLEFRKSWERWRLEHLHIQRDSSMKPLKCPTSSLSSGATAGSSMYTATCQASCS
The target in test [4] is T2, hGLP-1R. Kind of test: Functional cAMP activation in the presence of 0.1% casein (no HSA). The note with it: read-out: Relative cAMP EC50, hGLP-1R.
For test [5], the target named is human GcgR (Homo sapiens, UniProt P47871). Kind of test: Functional cAMP activity in the presence of 1% HSA. The note with it: read-out: cAMP Rel EC50, hGcgR.
Chain of human GcgR (P47871 26-477): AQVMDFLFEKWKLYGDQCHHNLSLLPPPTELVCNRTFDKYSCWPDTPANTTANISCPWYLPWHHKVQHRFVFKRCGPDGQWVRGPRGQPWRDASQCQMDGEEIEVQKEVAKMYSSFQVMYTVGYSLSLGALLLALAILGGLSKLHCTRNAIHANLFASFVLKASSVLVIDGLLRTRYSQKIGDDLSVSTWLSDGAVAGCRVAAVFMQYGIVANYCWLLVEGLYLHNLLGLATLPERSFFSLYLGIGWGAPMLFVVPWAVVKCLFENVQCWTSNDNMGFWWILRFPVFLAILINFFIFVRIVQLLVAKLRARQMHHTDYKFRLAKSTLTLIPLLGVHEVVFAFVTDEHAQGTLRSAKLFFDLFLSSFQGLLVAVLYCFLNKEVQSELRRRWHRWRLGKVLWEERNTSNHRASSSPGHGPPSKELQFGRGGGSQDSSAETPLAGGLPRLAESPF
Test [6] has as its target T1, hGIPR. Kind of test: Functional cAMP activity in the presence of 1% HSA. The note with it: read-out: cAMP Rel EC50, hGIPR.
The mark [7] stands for this setting: in the presence of 0.1% casein (no HSA), geometric mean.

Where two headings read alike, the source gives them in different places. Starred links: 1 amine or outer side, 2 acyl side, 3 side chain; linkers in the order of their positions; H or OH if unused. Non-standard residues stand in square brackets, D forms with d. Residues, ends and D or L forms follow the SMILES beside them. Groups on a side chain read outwards from the residue. No end group written: not given here. *: point of attachment. C20 diacid = O=C(O)CCCCCCCCCCCCCCCCCCC(=O)*; C18 diacid = O=C(O)CCCCCCCCCCCCCCCCC(=O)*; αMePhe(2-F) = C[C@](N)(Cc1ccccc1F)C(=O)O; γGlu = O=C(O)[C@H](CCC(=O)[*:2])N[*:1]; αMe4Pal = C[C@](N)(Cc1ccncc1)C(=O)O; αMeY = C[C@](N)(Cc1ccc(O)cc1)C(=O)O; Hyp = O=C(O)[C@@H]1C[C@@H](O)CN1; αMeF = C[C@](N)(Cc1ccccc1)C(=O)O; 4Pal = N[C@@H](Cc1ccncc1)C(=O)O; αMeL = CC(C)C[C@](C)(N)C(=O)O; αMeS = C[C@](N)(CO)C(=O)O; Orn = NCCC[C@H](N)C(=O)O; AEEA = NCCOCCOCC(=O)O; Aib = CC(C)(N)C(=O)O
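Wherever Relative cAMP EC50, hGIPR is given: intracellular cAMP rise after 30 min at 37 °C read by HTRF against a standard curve, scaled between buffer alone (0%) and top control ligand concentration (100%), four-parameter fit.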
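Wherever Relative cAMP EC50, hGLP-1R is given: intracellular cAMP rise after 30 min at 37 °C read by HTRF, normalized between buffer only (0%) and maximal control ligand (100%), four-parameter variable-slope fit.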
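Wherever Relative cAMP EC50, hGcgR is given: intracellular cAMP rise after 30 min at 37 °C, read by HTRF against a cAMP standard curve, scaled from buffer only (0%) to maximal control ligand response (100%).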

Chain of hGcgR (P47871 26-477): as above

A word on the EC50: it is the concentration giving half of the maximal effect. In the case of `CC[C@H](C)[C@H](NC(=O)[C@H](Cc1ccccc1)NC(=O)[C@H](C)NC(=O)C(C)(C)NC(=O)[C@H](CCC(N)=O)NC(=O)[C@H](C)NC(=O)[C@H](CCCCNC(=O)CC[C@H](NC(=O)CC[C@H](NC(=O)CCCCCCCCCCCCCCCCC(=O)O)C(=O)O)C(=O)O)NC(=O)[C@H](CCCCN)NC(=O)[C@H](CC(=O)O)NC(=O)[C@H](CC(C)C)NC(=O)[C@H](CC(C)C)NC(=O)[C@@H](NC(=O)[C@H](CO)NC(=O)[C@H](Cc1ccncc1)NC(=O)[C@H](CC(=O)O)NC(=O)[C@H](CO)NC(=O)[C@@H](NC(=O)[C@](C)(Cc1ccccc1F)NC(=O)[C@@H](NC(=O)CNC(=O)[C@H](CCC(N)=O)NC(=O)C(C)(C)NC(=O)[C@@H](N)Cc1ccc(O)cc1)[C@@H](C)O)[C@@H](C)O)[C@@H](C)CC)C(=O)N[C@@H](CCC(=O)O)C(=O)N[C@@H](Cc1ccc(O)cc1)C(=O)N[C@@H](CC(C)C)C(=O)N[C@@H](CCC(=O)O)C(=O)N[C@@H](CCC(=O)O)C(=O)NCC(=O)NCC(=O)N1CCC[C@H]1C(=O)N[C@@H](CO)C(=O)N[C@@H](CO)C(=O)NCC(=O)N[C@@H](C)C(=O)N1CCC[C@H]1C(=O)N1CCC[C@H]1C(=O)N1CCC[C@H]1C(=O)N[C@@H](CO)C(N)=O` [Example 413] (H-Y[Aib]QGT[αMePhe(2-F)]TSD[4Pal]SILLDKK([γGlu-γGlu-C18 diacid])AQ[Aib]AFIEYLEEGGPSSGAPPPS-NH2), the half-maximal effective concentration (EC50) in test [1] was determined as 6.3 nM; in test [2], 0.0881 nM; in test [3] it was 41.4 nM; in test [4] it was 0.564 nM; in test [5] it was 629 nM; in test [6] it was 23.5 nM.

In the case of “H-Y[Aib]QGT[αMePhe(2-F)]TSD[4Pal][αMeS]ILLD[Orn]K([γGlu-γGlu-C18 diacid])AQ[Aib][Orn]FI[dE][αMeY]LQEGGPSSGEPPPEGAEE-NH2 [Example 574]”, the concentration for a half-maximal effect (EC50) was 5.04 nM in test [1]; 0.235 nM in test [2]; 37.2 nM in test [3]; 0.499 nM in test [4]; 435 nM in test [5]; 20.5 nM in test [6].

On to “Y[Aib]QGT[αMePhe(2-F)]TSD[4Pal][αMeS]I[αMeL]LD[Orn]K([γGlu-γGlu-C18 diacid])AQ[Aib]QFI[dE][αMeY]LQEGGPSSGEPPPEGTE-NH2 [Example 528]”, for which the EC50 in test [1] worked out at 7 nM; in test [2], 0.0333 nM; in test [3], 24.3 nM; in test [4], 0.434 nM; in test [5] it was 474 nM; in test [6], 1.55 nM.

As to “H-Y[Aib]QGT[αMeF]TSD[4Pal][αMeS]I[αMeL]LD[Orn]K([AEEA-γGlu-C18 diacid])AQ[αMe4Pal]EFI[dE][αMeY]LIEGGPSSGAPPPSGSE-NH2 [Example 1166]”, the EC50 turned out to be 2.94 nM in test [1] (setting [7]); 0.00999 nM in test [2] (setting [7]); 65.6 nM in test [3]; 0.478 nM in test [4] (setting [7]); 427 nM in test [5]; 1.1 nM in test [6].

As for “H-Y[Aib]QGTFTSDFS[Orn][αMeL]LDKK([AEEA-γGlu-C18 diacid])AQ[Aib]AFIEYLLEGG[Hyp]SSGAPPPGGS-NH2 [Example 234]”, the EC50 turned out to be 7.87 nM in test [1] (setting [7]); 0.322 nM in test [2] (setting [7]); 604 nM in test [3]; 4.72 nM in test [4] (setting [7]); 702 nM in test [5]; 31.1 nM in test [6].

Turning to `CC[C@H](C)[C@H](NC(=O)[C@H](CC(C)C)NC(=O)[C@](C)(Cc1ccc(O)cc1)NC(=O)[C@@H](CCC(=O)O)NC(=O)[C@@H](NC(=O)[C@H](Cc1ccccc1)NC(=O)[C@H](CCCN)NC(=O)C(C)(C)NC(=O)[C@H](CCC(N)=O)NC(=O)[C@H](C)NC(=O)[C@H](CCCCNC(=O)COCCOCCNC(=O)CC[C@H](NC(=O)CCCCCCCCCCCCCCCCC(=O)O)C(=O)O)NC(=O)[C@H](CCCN)NC(=O)[C@H](CC(=O)O)NC(=O)[C@H](CC(C)C)NC(=O)[C@](C)(CC(C)C)NC(=O)[C@@H](NC(=O)[C@](C)(CO)NC(=O)[C@H](Cc1ccncc1)NC(=O)[C@H](CC(=O)O)NC(=O)[C@H](CO)NC(=O)[C@@H](NC(=O)[C@](C)(Cc1ccccc1F)NC(=O)[C@@H](NC(=O)CNC(=O)[C@H](CCC(N)=O)NC(=O)C(C)(C)NC(=O)[C@@H](N)Cc1ccc(O)cc1)[C@@H](C)O)[C@@H](C)O)[C@@H](C)CC)[C@@H](C)CC)C(=O)N[C@@H](CCC(=O)O)C(=O)NCC(=O)NCC(=O)N1CCC[C@H]1C(=O)N[C@@H](CO)C(=O)N[C@@H](CO)C(=O)NCC(=O)N[C@@H](CCC(=O)O)C(=O)N1CCC[C@H]1C(=O)N[C@@H](CCC(=O)O)C(=O)N1CCC[C@H]1C(=O)N[C@@H](CCC(=O)O)C(N)=O` [Example 461] (H-Y[Aib]QGT[αMePhe(2-F)]TSD[4Pal][αMeS]I[αMeL]LD[Orn]K([AEEA-γGlu-C18 diacid])AQ[Aib][Orn]FI[dE][αMeY]LIEGGPSSGEPEPE-NH2), the EC50 in test [1] was 1.53 nM; in test [2] it was 0.0171 nM; in test [3], 12 nM; in test [4], 0.194 nM; in test [5], 131 nM; in test [6], 2.51 nM.

Regarding “H-Y[Aib]QGTFTSDFS[Orn][αMeL]LDKK([AEEA-γGlu-C20 diacid])AQ[Aib]AFIEYLLEGGPSSGEPPPSEG-NH2 [Example 59]”, the concentration for a half-maximal effect (EC50) in test [1] (setting [7]) was 6.57 nM; in test [2] (setting [7]), 0.54 nM; in test [3] it was 1370 nM; in test [4] (setting [7]) it was 4.8 nM; in test [5], 2160 nM; in test [6] it was 166 nM.

On to “H-Y[Aib]QGTFTSDFS[Orn][αMeL]LDKK([AEEA-γGlu-C18 diacid])AQ[Aib]AFIEYLLEGGESSGAPPPSGS-NH2 [Example 145]”, for which the EC50 was found to be 3.14 nM in test [1] (setting [7]); 0.539 nM in test [2] (setting [7]); 1480 nM in test [3]; 4.26 nM in test [4] (setting [7]); 693 nM in test [5]; 108 nM in test [6].

In the case of “Y[Aib]QGTFTSD[4Pal]SQ[αMeL]LD[Orn]K([AEEA-γGlu-C18 diacid])AQ[αMe4Pal]AFIE[αMeY]LLEGGPSSGAPPPSGS-NH2 [Example 932]”, the half-maximal effective concentration (EC50) turned out to be 2.67 nM in test [1] (setting [7]); 0.188 nM in test [2] (setting [7]); 249 nM in test [3]; 1.61 nM in test [4] (setting [7]); 513 nM in test [5]; 25 nM in test [6].

Turning to “H-Y[Aib]QGT[αMePhe(2-F)]TSD[4Pal]SILLD[Orn]K([γGlu-γGlu-C18 diacid])AQ[Aib]AFIEYLQEGGPSSGAPPPSGTEE-NH2 [Example 581]”, the concentration giving a half-maximal response (EC50) in test [1] came to 8.18 nM; in test [2], 0.0812 nM; in test [3], 65.9 nM; in test [4], 0.406 nM; in test [5], 1500 nM; in test [6] it was 7.29 nM.

For “H-Y[Aib]QGTFTSD[4Pal]S[Orn][αMeL]LD[Orn]K([Glu-Glu-γGlu-C18 diacid])AQ[Aib]AFIE[αMeY]LLEGGPSSGAPPPSGSEE-NH2 [Example 1067]”, the EC50 in test [1] (setting [7]) worked out at 12.6 nM; in test [2] (setting [7]) it was 0.471 nM; in test [3], 2610 nM; in test [4] (setting [7]) it was 17.6 nM; in test [5], 1860 nM; in test [6] it was 86.4 nM.

As to `CC[C@H](C)[C@H](NC(=O)[C@H](Cc1ccccc1)NC(=O)[C@H](C)NC(=O)C(C)(C)NC(=O)[C@H](CCC(N)=O)NC(=O)[C@H](C)NC(=O)[C@H](CCCCNC(=O)CC[C@H](NC(=O)CC[C@H](NC(=O)CCCCCCCCCCCCCCCCC(=O)O)C(=O)O)C(=O)O)NC(=O)[C@H](CCCCN)NC(=O)[C@H](CC(=O)O)NC(=O)[C@H](CC(C)C)NC(=O)[C@](C)(CC(C)C)NC(=O)[C@H](CCCN)NC(=O)[C@H](CO)NC(=O)[C@H](Cc1ccccc1)NC(=O)[C@H](CC(=O)O)NC(=O)[C@H](CO)NC(=O)[C@@H](NC(=O)[C@H](Cc1ccccc1)NC(=O)[C@@H](NC(=O)CNC(=O)[C@H](CCC(N)=O)NC(=O)C(C)(C)NC(=O)[C@@H](N)Cc1ccc(O)cc1)[C@@H](C)O)[C@@H](C)O)C(=O)N[C@@H](CCC(=O)O)C(=O)N[C@@H](Cc1ccc(O)cc1)C(=O)N[C@@H](CC(C)C)C(=O)N[C@@H](CC(C)C)C(=O)N[C@@H](CCC(=O)O)C(=O)NCC(=O)NCC(=O)N1CCC[C@H]1C(=O)N[C@@H](CO)C(=O)N[C@@H](CO)C(=O)NCC(=O)N[C@@H](C)C(=O)N1CCC[C@H]1C(=O)N1CCC[C@H]1C(=O)N1CCC[C@H]1C(=O)N[C@@H](CO)C(=O)NCC(=O)N[C@@H](CO)C(N)=O` [Example 199], the EC50 in test [1] (setting [7]) is 5.8 nM; in test [2] (setting [7]) it was 0.232 nM; in test [3], 1060 nM; in test [4] (setting [7]), 4.91 nM; in test [5], 1000 nM; in test [6] it was 41.6 nM.
